biological target: T1, Gastrin receptor (Cavia porcellus, UniProt H0VZC5); test: Gastrin receptor binding assay (displacement of 125I-(Leu-15)-Gastrin from guinea pig fundic glands); parameters: species or system guinea pig (Hartley Strain); settings: guinea pig fundic mucosa glands, 25° C., 30 min, read-out: In vitro Binding Data IC50 Gastrin
T1 construct: The fundic mucosa is gently scraped off the submucosa; from tissue; host or cells: gastric glands from fundic mucosa of Hartley guinea pig
T1 sequence (H0VZC5 1-426): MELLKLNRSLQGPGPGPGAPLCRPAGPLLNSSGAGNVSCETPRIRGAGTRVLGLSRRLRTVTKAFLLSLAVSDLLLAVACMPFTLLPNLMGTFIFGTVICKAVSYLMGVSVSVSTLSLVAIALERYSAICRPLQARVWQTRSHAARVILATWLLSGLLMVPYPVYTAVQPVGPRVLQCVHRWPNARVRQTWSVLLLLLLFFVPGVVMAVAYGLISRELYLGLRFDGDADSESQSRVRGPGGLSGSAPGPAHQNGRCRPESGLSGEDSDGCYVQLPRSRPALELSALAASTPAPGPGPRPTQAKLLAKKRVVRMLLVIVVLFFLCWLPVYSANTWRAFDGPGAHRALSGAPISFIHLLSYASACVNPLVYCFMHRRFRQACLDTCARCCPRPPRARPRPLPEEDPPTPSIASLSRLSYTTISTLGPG
Procedure: (a) Phosphate Buffered Saline (PBS): 8.743 g NaCl, 523 mg K2 HPO4 and 76.8 mg NaH2 PO4 is dissolved in 1.0 liter of deionized water and the pH of the solution is adjusted to 7.3 with 5N NaOH.
(b) Buffer A: While adding Basal Medium Eagle (BME) containing Earle's Salts, L-glutamine and 25 mM HEPES, 3 liters of deionized water is stirred, followed by the addition and dissolution of […] of sodium bicarbonate. The solution is then equilibrated with 95% O2 /5% CO2 gas followed by titration to a pH of 7.4 with NaOH.
(c) Buffer B: 18.75 mg of collagenase and […] of BSA is dissolved in 25 ml of Buffer A.
(d) Buffer C: 0.3 g of BSA is dissolved in 300 ml of Buffer A.
(e) 6.25 mg Bacitracin is dissolved in 25 ml of Buffer A.
(f) ^125 I-(Leu-15)-Gastrin: 100 microcurie dissolved in 2.0 ml of Buffer A to make 50 microcurie/ml.
(g) ^125 I-(15-methionine)-Human Gastrin: 50 microcurie/ml.
(h) (Leu 15)-Gastrin: 5.2 mg of (Leu-15)- Gastrin is dissolved in 10 ml of Buffer A. At the time of assay 1:10 dilution is made and 10 μl assay tube is used.
A guinea pig (Hartley Strain) weighing 150-200 grams, is sacrificed by CO2 asphyxiation and the stomach immediately excised, cut along the greater curvature, cleaned out and immediately immersed in a beaker containing cold PBS, pH 7.3, to insure thorough cleaning. The fundic mucosa is gently scraped off the submucosa and added to a preweighed 50 ml plastic centrifuge tube containing 30 ml of cold Buffer A. The weight of the plastic centrifuge tube containing the buffer is then subtracted from the combined weight of the mucosa and the buffer-containing tube to give the weight of the mucosa. The weight of the mucosa thus determined is recorded for later calculations.
The mucosa is then washed twice in Buffer A. After the final wash, the tissue is minced and is placed in a 100-ml glass beaker containing about 1.0 ml of Buffer A, and washed twice again by repeated centrifugation at 50×g for 5 minutes each and aspiration of supernatant. The washed tissue fragments are then added to a glass Erlenmeyer flask containing 25 ml of Buffer B and incubated in a Dubnoff shaking water bath at 37° C. for 30 minutes in a 95% O2 - 5% CO2 atmosphere. After the incubation, the digested tissue fragments in the Collegenase-buffer solution are triturated, filtered through a 200-micron nylon mesh and centrifuged at 50×g for 5 minutes. The supernatant is aspirated and discarded, the tissue washed 2× in Buffer C, resuspended in same buffer, incubated in a 37° C. water bath in an atmosphere of 95% O2 - 5% CO2 for 5 minutes, and centrifuged. The pelleted glands are suspended in Buffer D at a desired concentration of 2x10^5 glands/ml to use in the receptor binding assay.
Six minisorp tubes (16×100 mm) are serially marked and divided into two groups thus: tubes #1, #2, and #3 are marked "T" for "Totals" and tubes #4, #5, and #6 are marked "NS" for "Non-Specifics." Into each of the six tubes are added 220 μl of prepared glands in Buffer D; 20 μl of Buffer A in tubes #1, #2, and #3; 10 μl, in tubes #4, #5 and #6; (10μ of (Leu-15)-Gastrin (25 μM) in tubes #4, #5, and #6. The six tubes are then transferred immediately to a 25° C. water bath and challenged each with 10 μl ^125 I-(Leu-15)-Gastrin diluted as per calculation. The tubes are then covered with a gas hood connected to a 95% O2 - 5% CO2 gas source and mechanically agitated in a shaker for 30 minutes.
At the end of the incubation period, the assay mixtures are each filtered through a Whatman glass fiber filter B on a Brandel tissue harvester and washed twice with Buffer A. The filters are pre-soaked in Buffer C before use. The filter strips are removed after the final wash and individual filters counted in a Gamma Counter. The counts from the "Non-Specific" tubes are then averaged and subtracted from the average "Totals" to give the Specific Counts. […]

SMILES	IC50
O=C(NC(c1ccccc1)c1ccccc1)[C@H]1Cc2c([nH]c3ccccc23)CN1 [Example 6, (3R)-3-diphenylmethylcarbamoyl-1,2,3,4-tetrahydro-9H-pyrido[3,4-b]indole]	60 µM
Cc1cccc(NC(=O)N2Cc3[nH]c4ccccc4c3C[C@H]2C(=O)N[C@@H](CC(C)C)C(=O)N[C@@H](CC(=O)O)C(N)=O)c1 [Example 12, N-[(3S)-2-(3-methylphenylcarbamoyl)-1,2,3,4-tetrahydro-9H-pyrido[3,4-b]indole-3-carboxyl]-L-leucyl-L-aspartic acid amide]	29 µM
NC(=O)[C@H](CC(=O)O)NC(=O)[C@H]1Cc2c([nH]c3ccccc23)CN1 [Example 3, N-[(3R)-1,2,3,4-tetrahydro-9H-pyrido[3,4-b]-indole-3-carboxyl]-L-aspartic acid amide]	> 300 µM
Cc1cccc(NC(=O)N2Cc3[nH]c4ccccc4c3C[C@@H]2C(=O)N[C@@H](C)C(=O)N[C@@H](CC(=O)O)C(N)=O)c1 [Example 58]	18 µM
O=C(NCC(c1ccccc1)c1ccccc1)[C@H]1Cc2c([nH]c3ccccc23)CN1 [Example 5, (3R)-3-(2,2'-diphenyl)ethylcarbamoyl-1,2,3,4-tetrahydro-9H-pyrido[3,4-b]indole]	59 µM
O=C(Nc1ccccc1C(=O)N1CCCC1)[C@H]1Cc2c([nH]c3ccccc23)CN1C(=O)c1ccc2ccccc2c1 [Example 20, pyrrolidine-2-N-[(3R)-2-(2-naphthoyl)-1,2,3,4-tetrahydro-9H-pyrido[3,4-b]indole-3-carboxyl]aminobenzamide]	80 µM
NC(=O)[C@H](CC(=O)O)NC(=O)[C@H]1Cc2c([nH]c3ccccc23)CN1C(=O)c1ccccc1 [Example 8, N-[(3R)-2-benzoyl-1,2,3,4-tetrahydro-9H-pyrido[3,4-b]indole-3-carboxyl]-L-aspartic acid amide]	78 µM
Cc1cccc(NC(=O)N2Cc3[nH]c4ccccc4c3C[C@@H]2C(=O)N[C@@H](CC(C)C)C(N)=O)c1 [Example 39, N-[(3R)-2-(3-methylphenylcarbamoyl)-1,2,3,4-tetrahydro-9H-pyrido[3,4-b]indole-3-carboxy]-L-leucinamide]	0.23 µM
Cc1cccc(NC(=O)N2Cc3[nH]c4ccccc4c3C[C@H]2C(=O)N[C@H](CC(C)C)C(=O)N[C@@H](CC(=O)O)C(N)=O)c1 [Example 52]	> 30 µM
CCOC(=O)c1ccccc1NC(=O)[C@H]1Cc2c([nH]c3ccccc23)CN1C(=O)OCc1ccccc1 [Example 17]	100 µM
CC(C)C[C@H](NC(=O)[C@H]1Cc2c([nH]c3ccccc23)CN1C(=O)Nc1cccc2ccccc12)C(=O)N[C@@H](CC(=O)O)C(N)=O [Example 67, N-[(3R)-2-(1-naphthylcarbamoyl)-1,2,3,4-tetrahydro-9H-pyrido[3,4-b]indole-3-carboxyl]-L-leucyl-L-aspartic acid amide]	2 µM
CC(C)C[C@H](NC(=O)[C@H]1Cc2c([nH]c3ccccc23)CN1C(=O)Nc1ccc(Cl)c(Cl)c1)C(=O)NCC(N)=O [Example 28]	0.91 µM
CC(C)C[C@H](NC(=O)[C@@H]1Cc2c([nH]c3ccccc23)CN1)C(=O)N[C@@H](CC(=O)O)C(N)=O [Example 2, N-[(3S)-1,2,3,4-tetrahydro-9H-pyrido[3,4-b]indole-3-carboxyl]-L-leucyl-L-aspartic acid amide]	60 µM
Cc1cccc(NC(=O)N2Cc3[nH]c4ccccc4c3C[C@@H]2C(=O)N[C@@H](CC(C)C)C(=O)N[C@@H](CC(N)=O)C(=O)O)c1 [Example 50]	12 µM
CC(C)C[C@H](NC(=O)[C@H]1Cc2c([nH]c3ccccc23)CN1C(=O)Nc1ccc(Cl)c(Cl)c1)C(=O)N[C@@H](CC(=O)O)C(N)=O [Example 66]	0.54 µM
CC[C@H](C)[C@H](NC(=O)[C@H]1Cc2c([nH]c3ccccc23)CN1C(=O)Nc1ccc(Cl)c(Cl)c1)C(=O)N[C@@H](CC(=O)O)C(N)=O [Example 24, N-[(3R)-2-(3,4-dichlorophenylcarbamoyl)-1,2,3,4-tetrahydro-9H-pyrido[3,4-b]indol-3-yl]carbonyl-L-isoleucyl-L-aspartic acid amide]	0.77 µM

— patent US5162336A, “Tetrahydro-pyrido-indoles as cholecystokinin and gastrin antagonists” (Rhone-Poulenc Rorer Pharmaceuticals Inc., priority 1990, dated 1992)
